Laboratory results taken from US20250367173A1, “ECTONUCLEOTIDE PYROPHOSPHATASE-PHOSPHODIESTERASE-1 INHIBITORS AND PHARMACEUTICAL COMPOSITIONS COMPRISING THE SAME” (LigaChem Biosciences Inc., priority 2022, published 2025).

Experiments:
ENPP-1 [1] = molecular target: T1, ENPP-1 (Homo sapiens, UniProt P22413); test: ENPP-1 enzyme assay with pNP-TMP substrate; format: biochemical; conditions: 12.5 ng ENPP-1, 720 μM substrate pNP-TMP, pH 9.0, 37° C., 60 minutes, absorbance 405 nm; average IC50
T1 construct: purchased Biovendor RD172124100
T1 sequence (P22413 1-925): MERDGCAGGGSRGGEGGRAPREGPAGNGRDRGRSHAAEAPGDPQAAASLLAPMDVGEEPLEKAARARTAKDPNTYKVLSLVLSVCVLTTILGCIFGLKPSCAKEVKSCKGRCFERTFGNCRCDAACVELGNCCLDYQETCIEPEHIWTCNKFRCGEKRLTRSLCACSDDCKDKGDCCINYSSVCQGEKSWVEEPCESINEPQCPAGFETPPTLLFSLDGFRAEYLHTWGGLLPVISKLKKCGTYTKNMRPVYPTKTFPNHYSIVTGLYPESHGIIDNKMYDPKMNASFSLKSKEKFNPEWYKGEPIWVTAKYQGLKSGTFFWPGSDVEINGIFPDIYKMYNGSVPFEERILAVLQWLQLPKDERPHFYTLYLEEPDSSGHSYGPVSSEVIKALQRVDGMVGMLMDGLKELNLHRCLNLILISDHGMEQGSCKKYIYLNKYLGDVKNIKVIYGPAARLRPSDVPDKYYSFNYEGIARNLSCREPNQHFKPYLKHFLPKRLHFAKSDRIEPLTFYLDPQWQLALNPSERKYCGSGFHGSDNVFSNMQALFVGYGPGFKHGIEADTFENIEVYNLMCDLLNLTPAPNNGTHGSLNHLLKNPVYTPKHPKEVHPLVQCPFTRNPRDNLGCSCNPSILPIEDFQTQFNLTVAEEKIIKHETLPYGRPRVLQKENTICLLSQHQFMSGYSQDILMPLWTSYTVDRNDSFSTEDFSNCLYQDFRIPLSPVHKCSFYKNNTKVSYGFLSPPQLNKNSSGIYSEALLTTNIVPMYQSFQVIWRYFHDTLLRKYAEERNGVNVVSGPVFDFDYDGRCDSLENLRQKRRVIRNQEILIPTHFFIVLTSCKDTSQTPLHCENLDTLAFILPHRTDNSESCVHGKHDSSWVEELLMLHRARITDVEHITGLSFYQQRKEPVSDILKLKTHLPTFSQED
Protocol: In order to measure the ENPP-1 inhibitory activity of the compounds according to the present disclosure, the following tests were performed.
ENPP-1 hydrolyzes a variety of substrates, including phosphodiester bonds of nucleotides and nucleotide sugars and pyrophosphate bonds of nucleotides and nucleotide sugars. p-Nitrophenyl 5′-thymidine monophosphate (p-Nph-5′-TMP) is an artificial substrate for 5′-adenosine monophosphate (AMP), which is hydrolyzed by the human recombinant ENPP-1 enzyme. In the above reaction, ENPP-1 enzymatic activity is monitored through the formation of yellow p-nitrophenolate, which absorbs at 405 nm.
First, the reaction mixture contains 100 mM Tris-HCl (pH 9.0), 150 mM NaCl, […], and 1% DMSO. Serially diluted ENPP-1 inhibitors (test compound concentrations ranging from 10 μM to 0.5 nM) are reacted with 12.5 ng of ENPP-1 (Biovendor, catalog number RD172124100) and 720 μM substrate pNP-TMP at 37° C. for 60 minutes. All assays include a DMSO control without ENPP-1 inhibitor that gives maximum absorbance.
(§1) After 60 minutes of this reaction, the […] is measured using an Epoch™ Microplate Spectrophotometer (BioTek Instruments Inc.). Inhibition (%) is calculated using the following formula: Sample OD405 nm/Max OD405 nm×100%. % residual ENPP-1 enzyme activity versus IC50 values for ENPP-1 inhibitor concentrations were determined by fitting inhibition curves using the 4-parameter method of GraphPad Prism® software [GraphPad version 9.3.1 for Windows, GraphPad Software, La Jolla California USA, www.graphpad.com].

ENPP-1 [2] = molecular target: T1, ENPP-1; test: ENPP-1 enzyme assay with cGAMP substrate; format: biochemical; conditions: 200 pM ENPP-1, 10 μM substrate 2′3′-cGAMP, pH 7.4, 37° C., 30 minutes, Transcreener AMP2/GMP2 kit; average IC50
Protocol: 2′3′-cGAMP is a natural substrate specifically hydrolyzed by ENPP-1, and produces 5′-adenosine monophosphate (AMP) and 5′-guanosine monophosphate (GMP). AMP and GMP produced from the reaction are monitored for ENPP-1 enzyme activity through an AMP^2/GMP^2 ENPP-1 Assay kit (Bellbrook Labs, catalog number 3015).
First, the reaction mixture contains 25 mM Tris-HCl (pH 7.4), 5 mM MgCl2, 0.01% Brij-35, and 1% DMSO. Serially diluted ENPP-1 inhibitors (test compound concentrations ranging from 10 μM to 0.5 nM) are reacted with 200 pM ENPP-1 (Biovendor, catalog number RD172124100) and 10 μM substrate 2′3′-cGAMP at 37° C. for 30 minutes. All assays include a DMSO control without ENPP-1 inhibitor that provides maximal AMP and GMP production. After 30 minutes of this reaction, AMP and GMP production is detected as a measure of ENPP-1 enzymatic activity using the Transcreener® AMP^2/GMP^2 ENPP-1 Assay kit. The detection reagent is a reagent containing 16 nM AMP^2/GMP^2 Antibody-Tb, 25 mM Tris-HCl and 60.1 nM AMP/GMP HiLyte647 Tracer, which is added by 5 μl, mixed well, and incubated at 25° C. for 2 hours.
as §1, with “The” for “After 60 minutes of this reaction, the”, “a SPARK Cyto plate reader (Tecan).” for “an Epoch™ Microplate Spectrophotometer (BioTek Instruments Inc.).”, “(Max 615:665 ratio-615:665 ratio)/Max 615:665 ratio×100%.” for “Sample OD405 nm/Max OD405 nm×100%.”

Q: Which IC50 (ENPP-1 [1]) does the source give for COc1ccc2c(c1)c1c(n2Cc2ccc(S(N)(=O)=O)cc2)CCCN1 [Compound 38, 4-((8-methoxy-1,2,3,4-tetrahydro-5H-pyrido[3,2-b]indol-5-yl)methyl)benzenesulfonamide] here?
A: < 1000 nM

Q: What about the IC50 (ENPP-1 [2]) of the same molecule?
A: < 1000 nM

Q: For COc1ccc2c(c1)c1cccnc1n2Cc1ccc(S(N)(=O)=O)cc1 [Compound 49, 4-((6-methoxy-9H-pyrido[2,3-b]indol-9-yl)methyl)benzenesulfonamide], which IC50 (ENPP-1 [1]) is on record?
A: < 1000 nM

Q: And the IC50 (ENPP-1 [2])?
A: 1000 to 10000 nM

Q: How did the IC50 (ENPP-1 [1]) turn out when NS(=O)(=O)c1ccc(Cn2c3ccc(OC(F)(F)F)cc3c3ncccc32)cc1 [Compound 22, 4-((8-(trifluoromethoxy)-5H-pyrido[3,2-b]indol-5-yl)methyl)benzenesulfonamide] was run?
A: < 1000 nM

Q: And the IC50 (ENPP-1 [2])?
A: 1000 to 10000 nM

Q: Which results are given for Cc1ccc2c(c1)c1ncccc1n2Cc1ccc(S(C)(=N)=O)cc1 (stereo not shown) [Compound 23, imino(methyl) (4-((8-methyl-5H-pyrido[3,2-b]indol-5-yl)methyl)phenyl)-l6-sulfanone]?
A: IC50 (ENPP-1 [1]): < 1000 nM; IC50 (ENPP-1 [2]): < 1000 nM

Q: COc1ccc2c(c1)c1ncccc1n2Cc1ccc(S(C)(=N)=O)cc1 (single isomer, unassigned) [Compound 10a, imino (4-((8-methoxy-5H-pyrido[3,2-b]indol-5-yl)methyl)phenyl)(methyl)-l6-sulfanone] was tested. Which IC50 (ENPP-1 [1]) did it give?
A: < 1000 nM

Q: And the IC50 (ENPP-1 [2])?
A: < 1000 nM

Q: With COc1ccc2c3c(=O)[nH]ncc3n(Cc3ccc(S(N)(=O)=O)cc3)c2c1 [Compound 45, 4-((7-methoxy-1-oxo-1,2-dihydro-5H-pyridazino[4,5-b]indol-5-yl)methyl)benzene sulfonamide] as the molecule, how does the IC50 (ENPP-1 [1]) read?
A: < 1000 nM

Q: And the IC50 (ENPP-1 [2])?
A: < 1000 nM

Q: With COc1ccc2c(c1)c1ncccc1n2Cc1ccc(S(=N)(=O)Cc2ccccc2)cc1 (stereo not shown) [Compound 12, benzyl(imino)(4-((8-methoxy-5H-pyrido[3,2-b]indol-5-yl)methyl)phenyl)-l6-sulfanone] as the molecule, how does the IC50 (ENPP-1 [1]) read?
A: < 1000 nM

Q: What about the IC50 (ENPP-1 [2]) of the same molecule?
A: < 1000 nM

Q: For COc1ccc2c(c1)c1ncccc1n2Cc1ccc(S(N)(=O)=O)cc1 [Compound 5, 4-((8-methoxy-5H-pyrido[3,2-b]indol-5-yl)methyl)benzenesulfonamide], which IC50 (ENPP-1 [1]) is on record?
A: < 1000 nM

Q: What about the IC50 (ENPP-1 [2]) of the same molecule?
A: < 1000 nM

Q: How did the IC50 (ENPP-1 [1]) turn out when COc1ccc2c(c1)c1ncccc1n2Cc1ccc(S(C)(=N)=O)cc1C (stereo not shown) [Compound 18, imino (4-((8-methoxy-5H-pyrido[3,2-b]indol-5-yl)methyl)-3-methylphenyl)(methyl)-l6-sulfanone] was run?
A: < 1000 nM

Q: And the IC50 (ENPP-1 [2])?
A: < 1000 nM

Q: What does the source list for COc1ccc2c(c1)c1ncccc1n2Cc1ccc(NS(N)(=O)=O)cc1 [Compound 8, N-(4-((8-methoxy-5H-pyrido[3,2-b]indol-5-yl)methyl)phenyl) sulfamide]?
A: IC50 (ENPP-1 [1]): < 1000 nM; IC50 (ENPP-1 [2]): < 1000 nM

Q: What does the source list for COc1ccc2c(c1)c1cnccc1n2Cc1ccc(S(N)(=O)=O)cc1 [Compound 4, 4-((8-methoxy-5H-pyrido[4,3-b]indol-5-yl)methyl)benzenesulfonamide]?
A: IC50 (ENPP-1 [1]): < 1000 nM; IC50 (ENPP-1 [2]): < 1000 nM

Q: With COc1ccc2c(c1)c1ncccc1n2CC1CCN(S(N)(=O)=O)CC1 [Compound 6, 4-((8-methoxy-5H-pyrido[3,2-b]indol-5-yl)methyl) piperidine-1-sulfonamide] as the molecule, how does the IC50 (ENPP-1 [1]) read?
A: < 1000 nM

Q: And the IC50 (ENPP-1 [2])?
A: < 1000 nM

Q: Which results are given for COc1cc2c(cc1F)c1ncccc1n2Cc1ccc(S(C)(=N)=O)cc1 (stereo not shown) [Compound 32, (4-((8-fluoro-7-methoxy-5H-pyrido[3,2-b]indol-5-yl)methyl)phenyl)(imino)(methyl)-l6-sulfanone]?
A: IC50 (ENPP-1 [1]): < 1000 nM; IC50 (ENPP-1 [2]): < 1000 nM

Q: With CNS(=O)(=O)c1ccc(Cn2c3ccc(OC)cc3c3ncccc32)cc1 [Compound 7, 4-((8-methoxy-5H-pyrido[3,2-b]indol-5-yl)methyl)-N-methylbenzenesulfonamide] as the molecule, how does the IC50 (ENPP-1 [1]) read?
A: 1000 to 10000 nM

Q: What about the IC50 (ENPP-1 [2]) of the same molecule?
A: > 10000 nM

Q: How did the IC50 (ENPP-1 [1]) turn out when COc1ccc2c(c1)c1ncccc1n2CCc1ccc(S(N)(=O)=O)cc1 [Compound 9, 4-(2-(8-methoxy-5H-pyrido[3,2-b]indol-5-yl)ethyl)benzenesulfonamide] was run?
A: < 1000 nM

Q: And the IC50 (ENPP-1 [2])?
A: > 10000 nM

Q: Which results are given for COc1cc2c3ncccc3n(Cc3ccc(P(=O)(O)O)cc3)c2cc1F [Compound 57, (4-((7-fluoro-8-methoxy-5H-pyrido[3,2-b]indol-5-yl)methyl)phenyl)phosphonic acid]?
A: IC50 (ENPP-1 [1]): < 1000 nM; IC50 (ENPP-1 [2]): < 1000 nM

Q: COc1ccc2c(c1)c1c(n2Cc2ccc(S(N)(=O)=O)cc2)CCNC1 [Compound 36, 4-((8-methoxy-1,2,3,4-tetrahydro-5H-pyrido[4,3-b]indol-5-yl)methyl)benzenesulfonamide] was tested. Which IC50 (ENPP-1 [1]) did it give?
A: 1000 to 10000 nM

Q: And the IC50 (ENPP-1 [2])?
A: > 10000 nM

Q: With COc1ccc2c(c1)c1ncccc1n2Cc1ccc(S(N)(=O)=O)cc1F [Compound 15, 3-fluoro-4-((8-methoxy-5H-pyrido[3,2-b]indol-5-yl)methyl)benzenesulfonamide] as the molecule, how does the IC50 (ENPP-1 [1]) read?
A: < 1000 nM

Q: And the IC50 (ENPP-1 [2])?
A: < 1000 nM

Q: CCS(=N)(=O)c1ccc(Cn2c3ccc(OC)cc3c3ncccc32)cc1 (stereo not shown) [Compound 11, ethyl (imino) (4-((8-methoxy-5H-pyrido[3,2-b]indol-5-yl)methyl)phenyl)-l6-sulfanone] was tested. Which IC50 (ENPP-1 [1]) did it give?
A: < 1000 nM

Q: What about the IC50 (ENPP-1 [2]) of the same molecule?
A: < 1000 nM

Q: COc1ccc2c(c1)c1ncccc1n2Cc1ccc(S(C)(=N)=O)cc1OC (stereo not shown) [Compound 19, imino (3-methoxy-4-((8-methoxy-5H-pyrido[3,2-b]indol-5-yl)methyl)phenyl)(methyl)-l6-sulfanone] was tested. Which IC50 (ENPP-1 [1]) did it give?
A: < 1000 nM

Q: What about the IC50 (ENPP-1 [2]) of the same molecule?
A: < 1000 nM

Q: How did the IC50 (ENPP-1 [1]) turn out when NS(=O)(=O)c1ccc(Cn2c3ccc(Cl)cc3c3ncccc32)cc1 [Compound 21, 4-((8-chloro-5H-pyrido[3,2-b]indol-5-yl)methyl)benzenesulfonamide] was run?
A: < 1000 nM

Q: And the IC50 (ENPP-1 [2])?
A: < 1000 nM

Q: How did the IC50 (ENPP-1 [1]) turn out when COc1ccc2c(c1)c1ncccc1n2Cc1ccc(C(F)(F)P(=O)(O)O)cc1 [Compound 58, (difluoro (4-((8-methoxy-5H-pyrido[3,2-b]indol-5-yl)methyl)phenyl)methyl)phosphonic acid] was run?
A: < 1000 nM

Q: What about the IC50 (ENPP-1 [2]) of the same molecule?
A: 1000 to 10000 nM

Q: How did the IC50 (ENPP-1 [1]) turn out when COc1cc(F)c2c(c1)c1ncccc1n2Cc1ccc(S(N)(=O)=O)cc1 [Compound 25, 4-((6-fluoro-8-methoxy-5H-pyrido[3,2-b]indol-5-yl)methyl)benzenesulfonamide] was run?
A: < 1000 nM

Q: What about the IC50 (ENPP-1 [2]) of the same molecule?
A: 1000 to 10000 nM
